These are literature values, as cited in US20080293820A1, “METHODS FOR IMPROVING PHYSICAL FUNCTION IN FIBROMYALGIA” (Cypress Bioscience, Inc., priority 2007, published 2008).

The series relates to patients with FMS. To be noted: open-label; cited from earlier work.

On to `COc1ccc(C(CN(C)C)C2(O)CCCCC2)cc1` (centres unmarked) [venlafaxine], for which the “completing patients with a positive response (50% or greater improvement in two different measurements of overall pain)” value is reported as “Six of 11” and the “insomnia requiring adjunctive medical therapy, completing patients” value is recorded as 3 of 11.
